pIC50: −log10 of the molar value.
Experiments:
[1] = system: IL-12 induced STAT4 phosphorylation (IL-12 signals through TYK2 and JAK2); experiment: Human Whole Blood IL-12 Induced STAT4 Phosphorylation Assay; assay type: cell-based; details: Lymphocyte, IL-12 5 ng/mL, pSTAT4 in lymphocytes by flow cytometry, read-out: HWB IL-12 IC50
Procedure: Selected compounds were assessed for their ability to inhibit IL-12 signaling in a human whole blood flow cytometry assay. IL-12 signals through TYK2 and JAK2. Human Whole Blood IL-12 Induced STAT4 Phosphorylation Assay
Test articles were prepared as 30 mM stocks in DMSO. An 11-point 2.5 dilution series was created in DMSO with a top concentration of 10 mM. Further dilution was done by adding 4 μL of the above test article solutions into 96 μL of PBS with a top concentration of 400 μM. […] Blood was warmed to 37° C. prior to use. Human whole blood was aliquoted ([…]) in 96-well, deep-well, V-bottom plates and treated with compounds at 11 different concentrations (0.2% DMSO final) at 37° C. for 60 minutes. This was followed by a challenge with IL-12 ([…]; final, 5 ng/mL) for 15 minutes. Samples were treated with warm 1× Lyse/Fix buffer ([…]) to terminate activation and further incubated at 37° C. for 20 minutes to lyse red blood cells. Plates were centrifuged at 300×g for 5 minutes, supernatant was aspirated, and cells were washed with […] of staining buffer (PBS containing 0.5% fetal bovine serum and 0.01% sodium azide). The washed cell pellets were resuspended with […] of pre-chilled 90% methanol, and incubated at 4° C. for 30 minutes. Plates were centrifuged at 300×g for 5 minutes, supernatant containing 90% methanol was aspirated, and cells were washed with […]/well of staining buffer. Cell pellets were resuspended in staining buffer containing anti-pSTAT4-AlexaFluor647 (1 to 150 dilution, […]), and incubated at room temperature in the dark overnight.
Samples were transferred to 96-well U-bottom plates and flow cytometric analysis was performed on a FACSCalibur or LSRFortessa equipped with a HTS plate loader (BD Biosciences). The lymphocyte population was gated for histogram analysis of pSTAT4. Background fluorescence was defined using unstimulated cells and a gate was placed at the foot of the peak to include ˜0.5% gated population. The histogram statistical analysis was performed using CellQuestO Pro version 5.2.1 (BD Biosciences) or FACSDiva version 6.2 (BD Biosciences) software. Relative fluorescence unit (RFU), which measures the level of phospho STAT4, was calculated by multiplying the percent positive population and its mean fluorescence. Data from 11 compound concentrations (singlicate at each concentration) was normalized as a percentage of control based on the formula: % of Control=100×(A−B)/(C−B) where A is the RFU from wells containing compound and IL-12, B is the RFU from wells without IL-12 and compound (minimum fluorescence) and C is the RFU from wells containing only IL-12 (maximum fluorescence). Inhibition curves and IC50 values were determined using the Prism version 5 software (GraphPad, La Jolla, Calif.).

[2] = target: TYK2 (Homo sapiens (Human), UniProt P29597); experiment: JAK Caliper enzyme assay at 1 mM ATP (TYK2); assay type: biochemical; details: recombinant human kinase domain, Caliper mobility shift
Procedure: (§1) Compounds of the invention were evaluated by in vitro methods to determine their respective ability to inhibit the JAK kinases (TYK2, JAK1, JAK2, JAK3).
(§2) The human JAK inhibitory activity was determined by using a microfluidic assay to monitor phosphorylation of a synthetic peptide by the recombinant human kinase domain of each of the four members of the JAK family, JAK1, JAK2, JAK3 and TYK2. […] Each assay condition was optimized for enzyme concentration and room temperature incubation time to obtain a conversion rate of 20% to 30% phosphorylated peptide product. Reactions were terminated by the addition of stop buffer containing EDTA. Utilizing the LabChip 3000 mobility shift technology (Caliper Life Science), each assay reaction was sampled to determine the level of phosphorylation. This technology is separation-based, allowing direct detection of fluorescently labeled substrates and products. Separations are controlled by a combination of vacuum pressure and electric field strength optimized for each peptide substrate.
(§3) JAK Caliper Enzyme Assay at 1 mM ATP
(§4) Compounds were added to a 384-well plate. Reaction mixtures contained 10 mM HEPES, pH 7.4, 10 mM MgCl2, 0.01% BSA, 0.0005% Tween 20, 1 mM ATP and 1 μM peptide substrate. […] The assays were initiated by the addition of 20 nM JAK1, 1 nM JAK2, 1 nM JAK or 1 nM TYK2 enzyme and were incubated at room temperature for three hours for JAK1, 60 minutes for JAK2, 75 minutes for JAK3 or 135 minutes for TYK2. Enzyme concentrations and incubation times were optimized for each new enzyme preps and were modified slightly over time to ensure 20% to 30% phosphorylation. The assays were stopped with 15 μL of 180 mM HEPES, pH 7.4, 20 mM EDTA, and 0.2% Coating Reagent 3. The assay plates were placed on a Caliper Life Science LC3000 instrument, and each well was sampled using appropriate separation conditions to measure the unphosphorylated and phosphorylated peptide.
(§5) The data was collected using the HTS Well Analyzer software from Caliper Life Sciences. The data output for data analysis is the percent product converted calculated on peak height (Equation 1). % product converted=100*((product)/(product+substrate)) Equation 1: […]
(§6) The percent effect at each compound concentration was calculated based on the positive and negative control well contained within each assay plate (Equation 2). […] The negative control wells contained DMSO alone (at the same concentration as the compound wells) that was used to set the baseline activity in the assay (i.e., uninhibited JAK1, JAK2, JAK3 or TYK2). % effect=100*((sample well−negative control)/(positive control-negative control)) Equation 2: The percent effect was plotted against the compound concentration compound.

[3] = target: JAK2 (Homo sapiens (Human), UniProt O60674); experiment: JAK Caliper enzyme assay at 1 mM ATP (JAK2); assay type: biochemical; details: recombinant human kinase domain, Caliper mobility shift
Procedure: as §1, §2, §3, §4, §5, §6

[4] = target: JAK3 (Homo sapiens (Human), UniProt P52333); experiment: JAK Caliper enzyme assay at 1 mM ATP (JAK3); assay type: biochemical; details: recombinant human kinase domain, Caliper mobility shift
Procedure: as §1, §2, §3, §4, §5, §6

[5] = target: JAK1 (Homo sapiens (Human), UniProt P23458); experiment: JAK Caliper enzyme assay at 1 mM ATP (JAK1); assay type: biochemical; details: recombinant human kinase domain, Caliper mobility shift
Procedure: Compounds of the invention were evaluated by in vitro methods to determine their respective ability to inhibit the JAK kinases (TYK2, JAK1, JAK2, JAK3). The human JAK inhibitory activity was determined by using a microfluidic assay to monitor phosphorylation of a synthetic peptide by the recombinant human kinase domain of each of the four members of the JAK family, JAK1, JAK2, JAK3 and TYK2. […] Reactions were terminated by the addition of stop buffer containing EDTA. Utilizing the LabChip 3000 mobility shift technology (Caliper Life Science), each assay reaction was sampled to determine the level of phosphorylation. This technology is separation-based, allowing direct detection of fluorescently labeled substrates and products. Separations are controlled by a combination of vacuum pressure and electric field strength optimized for each peptide substrate. […] Compounds were added to a 384-well plate. […] Enzyme concentrations and incubation times were optimized for each new enzyme preps and were modified slightly over time to ensure 20% to 30% phosphorylation. […] The assay plates were placed on a Caliper Life Science LC3000 instrument, and each well was sampled using appropriate separation conditions to measure the unphosphorylated and phosphorylated peptide. The data was collected using the HTS Well Analyzer software from Caliper Life Sciences. […] The percent effect at each compound concentration was calculated based on the positive and negative control well contained within each assay plate (Equation 2). […] The percent effect was plotted against the compound concentration compound. […] Where max is the maximum asymptote (complete inhibition), min is the minimum asymptote (no inhibition) and s is the slope factor.

JAK3, sequence (P52333 822-1111): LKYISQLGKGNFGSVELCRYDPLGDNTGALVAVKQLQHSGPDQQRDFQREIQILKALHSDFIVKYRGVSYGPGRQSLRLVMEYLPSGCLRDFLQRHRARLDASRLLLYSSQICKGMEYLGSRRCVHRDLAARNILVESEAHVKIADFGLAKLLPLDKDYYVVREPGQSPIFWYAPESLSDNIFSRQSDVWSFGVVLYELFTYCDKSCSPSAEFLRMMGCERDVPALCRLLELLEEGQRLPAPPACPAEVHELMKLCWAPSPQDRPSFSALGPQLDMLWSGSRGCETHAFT
JAK1, sequence (P23458 875-1153): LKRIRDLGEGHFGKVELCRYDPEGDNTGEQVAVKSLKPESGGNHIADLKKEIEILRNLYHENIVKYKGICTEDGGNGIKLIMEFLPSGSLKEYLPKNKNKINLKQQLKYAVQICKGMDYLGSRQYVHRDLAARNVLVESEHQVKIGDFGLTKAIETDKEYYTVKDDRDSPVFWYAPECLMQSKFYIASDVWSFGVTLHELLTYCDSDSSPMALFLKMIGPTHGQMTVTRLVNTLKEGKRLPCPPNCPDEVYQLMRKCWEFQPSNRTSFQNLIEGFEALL
JAK2, sequence (O60674 849-1124): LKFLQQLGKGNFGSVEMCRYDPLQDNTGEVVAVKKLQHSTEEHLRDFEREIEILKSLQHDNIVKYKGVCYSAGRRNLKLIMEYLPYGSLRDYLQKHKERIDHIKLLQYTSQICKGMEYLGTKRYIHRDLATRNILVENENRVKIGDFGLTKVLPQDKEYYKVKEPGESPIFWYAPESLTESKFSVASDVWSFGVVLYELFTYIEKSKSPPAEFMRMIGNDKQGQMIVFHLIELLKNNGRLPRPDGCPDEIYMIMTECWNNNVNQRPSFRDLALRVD
TYK2, sequence (P29597 897-1176): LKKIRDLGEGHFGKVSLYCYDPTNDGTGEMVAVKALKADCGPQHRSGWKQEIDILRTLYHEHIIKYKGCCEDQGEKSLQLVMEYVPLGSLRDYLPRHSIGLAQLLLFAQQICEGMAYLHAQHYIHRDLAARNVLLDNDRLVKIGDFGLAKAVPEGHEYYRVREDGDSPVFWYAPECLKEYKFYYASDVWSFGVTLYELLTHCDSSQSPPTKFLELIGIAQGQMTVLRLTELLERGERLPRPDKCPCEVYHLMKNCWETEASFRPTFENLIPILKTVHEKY

Row | SMILES | pIC50 [1] | pIC50 [2] | pIC50 [3] | pIC50 [4] | pIC50 [5]
1 | CO[C@H]1C[C@@](CC#N)(n2cc(-c3nc(-c4cc(C(N)=O)n[nH]4)cn4nccc34)cn2)C1 [Example 32] | 6.89 | 7.77 | 6.47 | < 5.00 | 5.65
2 | N#CC[C@]1(n2cc(-c3nc(-c4cc(CO)on4)cn4nccc34)cn2)C[C@@H](C#N)C1 [Example 1, (1s,3s)-3-(Cyanomethyl)-3-(4-(6-(5-(hydroxymethyl)isoxazol-3-yl)pyrazolo[1,5-a]pyrazin-4-yl)-1H-pyrazol-1-yl)cyclobutane-1-carbonitrile] | 6.79 | – | 7.40 | < 5.01 | –
3 | Cn1cc(-c2cn3nccc3c(-c3cnn([C@]4(CC#N)C[C@@H](C#N)C4)c3)n2)c(N)n1 [Example 23, (1r,3r)-3-(4-(6-(3-Amino-1-methyl-1H-pyrazol-4-yl)pyrazolo[1,5-a]pyrazin-4-yl)-1H-pyrazol-1-yl)-3-(cyanomethyl)cyclobutane-1-carbonitrile] | 7.47 | 8.05 | 7.59 | 5.03 | 6.37
4 | CO[C@H]1C[C@@](CC#N)(n2cc(-c3nc(-c4cc(CO)[nH]n4)cn4nccc34)cn2)C1 [Example 27, 2-((1 s,3r)-1-(4-(6-(5-(Hydroxymethyl)-1H-pyrazol-3-yl)pyrazolo[1,5-a]pyrazin-4-yl)-1H-pyrazol-1-yl)-3-methoxycyclobutyl)acetonitrile] | 7.07 | 7.62 | 6.77 | < 5.00 | 6.13
5 | CO[C@H]1C[C@](CC#N)(n2cc(-c3nc(-c4cc(N)[nH]n4)cn4nccc34)cn2)C1 [Example 30, 2-((1r,3s)-1-(4-(6-(3-Amino-1H-pyrazol-5-yl)pyrazolo[1,5-a]pyrazin-4-yl)-1H-pyrazol-1-yl)-3-methoxycyclobutyl)acetonitrile] | 7.34 | 8.15 | 7.15 | < 5.00 | 6.76

Now from value to molecule:

Row | pIC50 [1] | pIC50 [2] | pIC50 [3] | pIC50 [4] | pIC50 [5] | SMILES
6 | 7.23 | 7.64 | 7.00 | < 5.00 | 6.50 | Cc1cnn2cc(-c3cnn(C)c3)nc(-c3cnn([C@]4(CC#N)C[C@@H](C#N)C4)c3)c12 [Example 25, (1r,3r)-3-(Cyanomethyl)-3-(4-(3-methyl-6-(1-methyl-1H-pyrazol-4-yl)pyrazolo[1,5-a]pyrazin-4-yl)-1H-pyrazol-1-yl)cyclobutane-1-carbonitrile]
7 | 7.55 | – | – | – | – | Cn1cc(-c2cn3nccc3c(-c3cnn([C@]4(CC#N)C[C@H](C#N)C4)c3)n2)cn1 [Example 19, (1s,3s)-3-(Cyanomethyl)-3-(4-(6-(1-methyl-1H-pyrazol-4-yl)pyrazolo[1,5-a]pyrazin-4-yl)-1H-pyrazol-1-yl)cyclobutane-1-carbonitrile]
8 | 7.30 | – | – | – | – | Cn1cc(-c2cn3nccc3c(-c3cnn([C@]4(CC#N)C[C@@H](C#N)C4)c3)n2)cn1 [Example 20, (1r,3r)-3-(Cyanomethyl)-3-(4-(6-(1-methyl-1H-pyrazol-4-yl)pyrazolo[1,5-a]pyrazin-4-yl)-1H-pyrazol-1-yl)cyclobutane-1-carbonitrile]
9 | 7.39 | 8.15 | 7.43 | 5.18 | 6.60 | Cn1cc(-c2cn3nccc3c(-c3cnn(C4(CC#N)CN(CC#N)C4)c3)n2)cn1 [Example 7, 2,2′-(3-(4-(6-(1-Methyl-1H-pyrazol-4-yl)pyrazolo[1,5-a]pyrazin-4-yl)-1H-pyrazol-1-yl)azetidine-1,3-diyl)diacetonitrile]

From patent publication US10144738B2, “Pyrazolo[1,5-A]PYRAZIN-4-YL derivatives” (Pfizer Inc., priority 2016, dated 2018)
